For this test, the system named is P388 leukemia ip, CD2F1 mice, survival T/C. Kind of test: NCI In Vivo Anticancer Drug Screen. Data for tumor model P388 Leukemia (intraperitoneal) in CD2F1 (CDF1) mice. As to conditions: endpoint: median survival time, higher = longer survival. In short, it runs like this: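 Mice carrying the transplanted tumor received test compound or vehicle. Survival was recorded in each group, and the value is the treated-group measurement divided by that of the vehicle-treated control group.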

Where [1] appears, read: dose: 50.0 mg/kg/injection, schedule: Q01DX009 (ip), vehicle: saline with Tween-80.
Where [2] appears, read: dose: 100.0 mg/kg/injection, schedule: Q01DX009 (ip), vehicle: saline with Tween-80.
Setting [3] is: dose: 200.0 mg/kg/injection, schedule: Q01DX009 (ip), vehicle: saline with Tween-80.
The mark [4] stands for this setting: dose: 50.0 mg/kg/injection, schedule: Q01DX005 (ip), vehicle: saline with Tween-80.
Setting [5] is: dose: 100.0 mg/kg/injection, schedule: Q01DX005 (ip), vehicle: saline with Tween-80.
Where [6] appears, read: dose: 200.0 mg/kg/injection, schedule: Q01DX005 (ip), vehicle: saline with Tween-80.
Setting [7] is: dose: 50.0 mg/kg/injection, schedule: Q01DX009 (ip), vehicle: Klucel (hydroxypropylcellulose) (HPC).
[8] abbreviates: dose: 100.0 mg/kg/injection, schedule: Q01DX009 (ip), vehicle: Klucel (hydroxypropylcellulose) (HPC).
Where [9] appears, read: dose: 200.0 mg/kg/injection, schedule: Q01DX009 (ip), vehicle: Klucel (hydroxypropylcellulose) (HPC).
Setting [10] is: dose: 60.0 mg/kg/injection, schedule: Q01DX005 (ip), vehicle: Klucel (hydroxypropylcellulose) (HPC).
The mark [11] stands for this setting: dose: 120.0 mg/kg/injection, schedule: Q01DX005 (ip), vehicle: Klucel (hydroxypropylcellulose) (HPC).
Setting [12] is: dose: 240.0 mg/kg/injection, schedule: Q01DX005 (ip), vehicle: Klucel (hydroxypropylcellulose) (HPC).
[13] abbreviates: dose: 12.5 mg/kg/injection, schedule: Q01DX005 (ip), vehicle: Klucel (hydroxypropylcellulose) (HPC).
The mark [14] stands for this setting: dose: 25.0 mg/kg/injection, schedule: Q01DX005 (ip), vehicle: Klucel (hydroxypropylcellulose) (HPC).
Setting [15] is: dose: 50.0 mg/kg/injection, schedule: Q01DX005 (ip), vehicle: Klucel (hydroxypropylcellulose) (HPC).
[16] abbreviates: dose: 100.0 mg/kg/injection, schedule: Q04DX003 (ip), vehicle: saline.
Setting [17] is: dose: 200.0 mg/kg/injection, schedule: Q04DX003 (ip), vehicle: saline.
[18] abbreviates: dose: 400.0 mg/kg/injection, schedule: Q04DX003 (ip), vehicle: saline.
Where [19] appears, read: dose: 100.0 mg/kg/injection, schedule: Q01DX005 (ip), vehicle: Klucel (hydroxypropylcellulose) (HPC).
Setting [20] is: dose: 60.0 mg/kg/injection, schedule: Q01DX005 (ip), vehicle: saline with Tween-80.
[21] abbreviates: dose: 120.0 mg/kg/injection, schedule: Q01DX005 (ip), vehicle: saline with Tween-80.
[22] abbreviates: dose: 240.0 mg/kg/injection, schedule: Q01DX005 (ip), vehicle: saline with Tween-80.

Where “and” joins values, the source holds several entries; their conditions need not be identical. Identical values can stand only once. Inconclusive results and toxic doses are left out.

Regarding `NC(C(=O)O)C(CC(=O)O)c1ccccc1` (stereo unspecified), the T/C runs as follows: under setting [1], 88 % of control; (dose: 50.0 mg/kg/injection, schedule: Q01DX009 (ip), vehicle: suspension in saline) 96 % of control; under setting [2], 94 % of control; (dose: 100.0 mg/kg/injection, schedule: Q01DX009 (ip), vehicle: suspension in saline) 89 % of control; (dose: 100.0 mg/kg/injection, schedule: Q04DX003 (ip), vehicle: saline with Tween-80) 100 % of control; under setting [3], 95 % of control. The T/C is 88 % of control (dose: 200.0 mg/kg/injection, schedule: Q01DX009 (ip), vehicle: suspension in saline); 108 % of control (dose: 200.0 mg/kg/injection, schedule: Q04DX003 (ip), vehicle: saline with Tween-80); 97 % of control (dose: 400.0 mg/kg/injection, schedule: Q04DX003 (ip), vehicle: saline with Tween-80).

For the compound `COc1ccc(CCNC(=O)C(=O)c2c[nH]c3ccccc23)cc1OC`, the T/C under setting [4] was 90 % of control, the T/C under setting [5] was 88 % of control and the T/C under setting [6] was 89 % of control.

`O=C(Nc1ccc(Cc2ccc(NC(=O)Nc3cccnc3)cc2)cc1)Nc1cccnc1`: the T/C is, setting by setting: under setting [7], 101 % of control; under setting [8], 94 % of control; under setting [9], 88 % of control.

On to `COC(=O)C12CN3CC(C)(C1)C(=O)C(C)(C3)C2=O` (stereo unspecified), for which the T/C (dose: 30.0 mg/kg/injection, schedule: Q01DX005 (ip), vehicle: Klucel (hydroxypropylcellulose) (HPC)) was 100 % of control; the T/C under setting [10] is 103 % of control and 107 % of control; the T/C under setting [11] was 107 % of control; the T/C under setting [12] was 89 % of control.

Take `O=C1c2ccccc2C(=O)c2c(NC(=O)C(F)(F)F)cccc21`: the T/C by setting is: under setting [13], 96 % of control; under setting [14], 93 % of control; under setting [15], 87 % of control and 89 % of control.

For the compound `Cc1nc2n[nH]c(N)c2nc1C`, the T/C reads like this: under setting [16], 100 % of control; under setting [17], 104 % of control; under setting [18], 95 % of control.

Turning to `OCCN(CCO)CC(O)c1cc(-c2ccccc2)nc2ccccc12` (stereo unspecified), the T/C is, setting by setting: under setting [13], 103 % of control; under setting [14], 94 % of control; under setting [15], 102 % of control and 103 % of control; under setting [19], 110 % of control.

On to `CCc1cccc(CC)c1NC1=C(Cl)C(=O)c2ccccc2C1=O`, for which the T/C under setting [20] was 100 % of control, the T/C under setting [21] is 94 % of control and the T/C under setting [22] was 104 % of control.

Regarding `CN(C)P(c1ccccc1)N(C)C`, the T/C was 106 % of control under setting [7], 102 % of control under setting [8] and 107 % of control under setting [9].

`Nc1cnns1`: the T/C was 100 % of control (dose: 11.25 mg/kg/injection, schedule: Q01DX009 (ip), vehicle: water); 102 % of control (dose: 22.5 mg/kg/injection, schedule: Q01DX009 (ip), vehicle: water); 105 % of control (dose: 45.0 mg/kg/injection, schedule: Q01DX009 (ip), vehicle: water); 119 % of control (dose: 90.0 mg/kg/injection, schedule: Q01DX009 (ip), vehicle: water); 105 % of control (dose: 180.0 mg/kg/injection, schedule: Q01DX009 (ip), vehicle: water).

With `CNC(=O)OC/C=C/c1ccccc1`, the T/C is, setting by setting: under setting [1], 99 % of control; under setting [2], 99 % of control; under setting [3], 92 % of control.

Turning to `C[Si](C)(CC[Si](C)(C)OS(C)(=O)=O)OS(C)(=O)=O`, the T/C reads like this: under setting [15], 101 % of control; under setting [19], 99 % of control; (dose: 200.0 mg/kg/injection, schedule: Q01DX005 (ip), vehicle: Klucel (hydroxypropylcellulose) (HPC)) 89 % of control.

As for `ClC(Cl)(Cl)SSC(=Nc1ccccc1)SSC(Cl)(Cl)Cl`, the T/C under setting [3] was 155 % of control.

With `CC(C)CC[NH-].CC(C)CC[NH-].[Cl][Pt+2]([Cl])([Cl])[Cl]`, the T/C under setting [2] is 176 % of control.

For `O=C(Nc1cccc(Cl)c1)Nc1ccc(Sc2ccc(Cl)cc2)o1`, the T/C is 97 % of control under setting [4], 88 % of control under setting [5] and 92 % of control under setting [6].

Regarding `O=c1[nH]c2nc(SCc3ccccc3)n(Cc3ccccc3)c2c(=O)n1OS(=O)(=O)c1ccccc1`, the T/C runs as follows: under setting [20], 98 % of control; under setting [21], 90 % of control; under setting [22], 90 % of control.

Take `CCN(CC)CCCNC(C)=O`: the T/C was 100 % of control under setting [16], 91 % of control under setting [17] and 95 % of control under setting [18].

In the case of `CCCCC/C=C/C/C=C\CCCCCCCC(=O)NC(Cc1ccc(C)cc1)c1ccccc1` (stereo unspecified), the T/C was 98 % of control under setting [1], 100 % of control under setting [2] and 100 % of control under setting [3].

In the case of `OC1(c2ccccc2)CCN(c2c3ccccc3nc3ccccc23)CC1`, the T/C (dose: 100.0 mg/kg/injection, schedule: Q04DX002 (ip), vehicle: Klucel (hydroxypropylcellulose) (HPC)) was 118 % of control and the T/C (dose: 200.0 mg/kg/injection, schedule: Q04DX002 (ip), vehicle: Klucel (hydroxypropylcellulose) (HPC)) is 119 % of control.

Take `COC(=O)C(Cc1c[nH]c2ccccc12)NC(=O)C(Cc1cnc[nH]1)N(C(=O)OCc1ccccc1)C(=O)OCc1ccccc1` (stereo unspecified): the T/C under setting [4] is 100 % of control, the T/C under setting [5] was 89 % of control and the T/C under setting [6] was 98 % of control.

Take `CC(=O)NC(C)(C(C)=O)c1ccccc1` (stereo unspecified): the T/C (dose: 60.0 mg/kg/injection, schedule: Q01DX005 (ip), vehicle: saline) is 102 % of control; the T/C (dose: 120.0 mg/kg/injection, schedule: Q01DX005 (ip), vehicle: saline) was 107 % of control; the T/C (dose: 240.0 mg/kg/injection, schedule: Q01DX005 (ip), vehicle: saline) was 110 % of control.

In the case of `CN(C)c1ccc(Cc2c[nH]c3ccccc3c2=O)cc1`, the T/C is 94 % of control under setting [20], 92 % of control under setting [21] and 95 % of control under setting [22].

On to `CCOC(=O)N1C(=O)C2C3C=CC(C2C1=O)C1C2C(=O)N(C(=O)OCC)C(=O)C2C31` (stereo unspecified), for which the T/C is 116 % of control and 124 % of control (dose: 25.0 mg/kg/injection, schedule: Q01DX009 (ip), vehicle: Klucel (hydroxypropylcellulose) (HPC)); 121 % of control under setting [7]; 152 % of control under setting [8].

In the case of `CCN(CC)CCSSCCN(CC)CC.[Cl][Mn][Cl]`, the T/C under setting [15] is 114 % of control and the T/C under setting [19] was 117 % of control.

Regarding `CC1OC(c2c(Cl)cccc2[N+](=O)[O-])OC1C` (stereo unspecified), the T/C runs as follows: under setting [10], 99 % of control; under setting [11], 91 % of control; under setting [12], 92 % of control.

On to `Cc1[nH]c2ccccc2c1CCCO`, for which the T/C runs as follows: (dose: 50.0 mg/kg/injection, schedule: Q01DX005 (ip), vehicle: saline) 105 % of control; (dose: 100.0 mg/kg/injection, schedule: Q01DX005 (ip), vehicle: saline) 100 % of control; (dose: 200.0 mg/kg/injection, schedule: Q01DX005 (ip), vehicle: saline) 105 % of control.

Turning to `CC(=O)N1CCc2cc([N+](=O)[O-])ccc21`, the T/C runs as follows: under setting [7], 99 % of control; under setting [8], 113 % of control; under setting [9], 100 % of control; (dose: 400.0 mg/kg/injection, schedule: Q01DX009 (ip), vehicle: Klucel (hydroxypropylcellulose) (HPC)) 110 % of control.

Turning to `Cc1cc(NC(=O)c2ccc(N=Nc3c(O)c(S(=O)(=O)O)cc4cc(S(=O)(=O)O)ccc34)cc2)ccc1N=Nc1ccc2cc(S(=O)(=O)O)cc(S(=O)(=O)O)c2c1`, the T/C is, setting by setting: under setting [4], 95 % of control; under setting [5], 98 % of control; under setting [6], 104 % of control.

Consider `CC(C)=C(C#N)N(C)C(C)(C)C`, for which the T/C reads like this: (dose: 50.0 mg/kg/injection, schedule: Q01DX009 (ip), vehicle: saline) 100 % of control; (dose: 100.0 mg/kg/injection, schedule: Q01DX009 (ip), vehicle: saline) 97 % of control.

These data come from PubChem BioAssay AID330 (DTP/NCI, 2004).
